# Paper PMC11550998, “Novel 5-HT7 receptor antagonists modulate intestinal immune responses and reduce severity of colitis” (American Journal of Physiology - Gastrointestinal and Liver …, 2024)
# What was measured:
# [1] = Mouse in vivo pharmacokinetic studies; set-up: species or system C57BL/6 male mice
# Method: Adult C57BL/6 male mice (2–4 mo old, body weight ranging from 20 to 25 g, Charles River Laboratories) were maintained under controlled temperature (23 ± 1°C) and lighting (lights on 6:00 AM–6:00 PM) with food and water provided ad libitum. Pharmacokinetic studies were performed either via intravenous bolus infusion or through oral gavage. Mice were administered each compound intravenously by tail vein injection (1 mg/kg) or orally through gavage (5 mg/kg). Serial blood samples were collected at 5, 15, and 30 min and 1, 2, 4, 8, and 24 h after intravenous administration, and at 15, 30 min, and 1, 2, 4, 8, and 24 h after oral gavage administration. All blood samples were centrifuged at 1,500 g for 5 min. Pharmacokinetic study procedures were approved by Temple University’s Institutional Animal Care and Usage Committee and were in accordance with National Institutes of Health (NIH) guidelines. For all in vivo efficacy studies, experiments were approved by the animal ethics committee of McMaster University and conducted under Canadian guidelines for animal research.
# Plasma concentrations were determined using an LC-MS/MS method. Briefly, 100-µL acetonitrile with an internal standard solution (Diltiazem, 0.1 μg/mL) was added to 50-µL plasma or tissue homogenate. After being vortexed for 1 min, the mixture was centrifuged at 3,000 g for 5 min. LC-MS/MS analysis was carried out using a high-performance liquid chromatography system consisting of an Agilent 1100 system interfaced to an API4000 SCIEX triple-quadrupole tandem mass spectrometer (Applied Biosystems/MDS Sciex, Foster City, CA). MC-170073, MC-230078, MC-230079, and the internal standard were separated by using a Phenomenex (Torrance, CA) C18 column (2.0 × 50 mm). The mobile phase consisted of solvent A (0.1% formic acid in water) and solvent B (0.1% formic acid in acetonitrile). A linear gradient of solvent B from 5 to 95% was used. The detection and quantification of analytes were performed with the m/z transition 347/191 for MC-170073, MC-230078, and MC-230079, and m/z 415/178 for diltiazem.
# DSS-induced colitis = test system: DSS-induced colitis; set-up: method as in PMID 23554310; details: acute DSS-induced colitis, vs controls; cited from earlier work
# [2] = test system: 2,4,6-trinitrobenzenesulfonic acid (TNBS)-induced colitis; set-up: method as in PMID 23554310, PMID 27047383; details: cited from earlier work
# [3] = test system: DSS exposure at 4% wt/vol; set-up: method as in PMID 25072499; details: DSS 4% wt/vol; untreated animals 33%; cited from earlier work
# [4] = test system: naive CD4+ T cells expressing 5-HT7 receptors; set-up: method as in PMID 17158224; details: ex vivo; cited from earlier work
# [5] = test system: colitis induced by DSS and TNBS; details: 5-HT4 receptor agonist; cited from earlier work
# [6] = male, C57BL/6, plasma, IV, 1 mg/kg
# [7] = male, C57BL/6, plasma, oral gavage, 5 mg/kg
compound,measurement,setting,value
CCC1(CC)C[C@H](CCN2CCN(c3ccc(O)cc3)CC2)OC1=O [MC-230079],bioavailability,"[1]; male, C57BL/6, mouse, plasma, oral, 5 mg/kg, 5 mg/kg oral vs 1 mg/kg IV, read-out: %F (oral bioavailability)",10.8%
same,AUC,[1]; [6],97 ng·h/mL
same,Cmax,[1]; [6],148 ng/mL
same,Tmax,[1]; [6],10 min
same,clearance,[1]; [6],4.2 mL/min
same,half-life,[1]; [6],20.1 min
same,AUC,[1]; [7],52.5 ng·h/mL
same,Cmax,[1]; [7],57 ng/mL
same,Tmax,[1]; [7],30 min
same,half-life,[1]; [7],34.9 min
same,CL,"[1]; oral gavage, 5 mg/kg",2.07 L/h
"CC1CCN(CC[C@H]2CCCN2S(=O)(=O)c2cccc(O)c2)CC1 [SB-269970, (R)-3-(2-(2-(4-methylpiperidin-1-yl)-ethyl)pyrrolidine-1-sulfonyl)phenol]",severity of colitis and production of proinflammatory cytokines,DSS-induced colitis,significantly reduced
same,effect on TNBS-induced colitis,[2],only a minor impact
same,mortality rate,[3],> 60%
same,rapid T cell responses upon 5-HT exposure,[4],abrogated
[H]/N=C(/NCCCCC)N/N=C/c1c[nH]c2ccc(OC)cc12 [tegaserod],effect on development of colitis,[5],protective actions
